Source: patent US6737383B1, “Herbicidal oxadiazolidines” (priority 1999, dated 2004)

Experiments:
[1] = system: bedstraw; test: Test B pre/postemergence bedstraw; assay type: in vivo, Galium aparine
Outline: (§1)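 Test chemicals in a non-phytotoxic solvent mixture with surfactant were sprayed preemergence onto planted seeds and postemergence onto plants 2 to 18 cm tall (1- to 4-leaf stage). After twelve to sixteen days in a greenhouse, injury was visually rated against untreated controls from 0 (no effect) to 10 (complete control).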

[2] = system: soybean; test: Test B pre/postemergence soybean; assay type: in vivo, Glycine max
Outline: as §1

[3] = system: bamyardgrass; test: Test B flood test barnyardgrass; assay type: in vivo, Echinochloa crus-galli; conditions: for Plant response rating, Barnyardgrass (0 to 10 scale, 0 is no effect, 10 is complete control): Rate 62 g/ha; for Plant response rating, Barnyardgrass (0 to 10 scale, 0 is no effect, 10 is complete control) / Barnyardgrass plant response rating (0 to 10 scale, 0 is no effect, 10 is complete control): visual evaluation after twelve to sixteen days; for Barnyardgrass plant response rating (0 to 10 scale, 0 is no effect, 10 is complete control): Rate 125 g/ha, under heading Pre-emergence
Outline: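 Each value is a visual injury score relative to controls, with 10 meaning complete control and 0 no effect. Evaluation took place twelve to sixteen days after the 2-leaf-stage plants were treated and kept in the greenhouse.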

[4] = system: wild oat; test: Test B pre/postemergence wild oat; assay type: in vivo, Avena fatua
Outline: as §1

[5] = Preemergence, Rate 62 g/ha, scale of 0 to 10 where 0 is no effect and 10 is complete control
[6] = Preemergence, Rate 125 g/ha, scale of 0 to 10 where 0 is no effect and 10 is complete control
[7] = Preemergence, Rate 250 g/ha, scale 0 to 10, 0 is no effect, 10 is complete control
[8] = Preemergence, Rate 500 g/ha, scale 0 to 10, 0 is no effect, 10 is complete control
[9] = Rate 62 g/ha, Postemergence, scale 0 to 10 (0 no effect, 10 complete control)
[10] = Rate 125 g/ha, Postemergence, scale 0 to 10, 0 is no effect, 10 is complete control
[11] = flood test species, Pre-emergence
[12] = Rate 250 g/ha, Pre-emergence (flood test species), scale 0 to 10, 0 is no effect, 10 is complete control
[13] = Postemergence, Rate 62 g/ha, scale of 0 to 10, 0 is no effect, 10 is complete control
[14] = Postemergence, Rate 125 g/ha, scale 0 to 10, 0 is no effect, 10 is complete control
[15] = Postemergence, Rate 500 g/ha, scale 0 to 10, 0 is no effect, 10 is complete control
[16] = Preemergence, Rate 500 g/ha, scale of 0 to 10 where 0 is no effect and 10 is complete control
[17] = Rate 250 g/ha, Postemergence, scale of 0 to 10 where 0 is no effect and 10 is complete control
[18] = Preemergence, Rate 125 g/ha, scale 0 to 10, 0 is no effect, 10 is complete control
[19] = Rate 500 g/ha, Pre-emergence section of Table B, 0 to 10 scale (0 no effect, 10 complete control)
[20] = Preemergence, Rate 62 g/ha, scale 0 to 10 (0 no effect, 10 complete control)
[21] = Postemergence, Rate 500 g/ha, scale of 0 to 10 where 0 is no effect and 10 is complete control

| Structure (SMILES) | Plant response rating, Bedstraw [1, 5] | Plant response rating, Soybean [2, 5] | Plant response rating, Barnyardgrass (0 to 10 scale, 0 is no effect, 10 is complete control) [3, 11] | Barnyardgrass plant response rating (0 to 10 scale, 0 is no effect, 10 is complete control) ([3]; flood test species) | Barnyardgrass plant response rating [3, 12] | Plant response rating, Wild oats [4, 5] | Bedstraw plant response rating [1, 13] | Bedstraw plant response rating [1, 14] | Plant response rating, Bedstraw [1, 15] | Bedstraw plant response rating [1, 16] | Plant response rating, Bedstraw [1, 17] | Soybean plant response rating [2, 18] | Soybean plant response rating (0 to 10 scale) ([2]; Preemergence, Rate 250 g/ha) | Soybean plant response rating [2, 16] | Plant response rating, Soybean [2, 17] | Barnyardgrass plant response rating [3, 19] | Wild oats plant response rating [4, 18] | Wild oats plant response rating (0 to 10 scale) ([4]; Preemergence, Rate 250 g/ha) | Wild oats plant response rating [4, 16] | Plant response rating, Wild oats [4, 17] | other results |
| --- | --- | --- | --- | --- | --- | --- | --- | --- | --- | --- | --- | --- | --- | --- | --- | --- | --- | --- | --- | --- | --- |
| CC(C)N(C(=O)n1oc(=O)n(COC(=O)C(C)(C)C)c1=O)c1ccc(F)cc1 [Compound 462] | 0 | 0 | 0 | 0 | 0 | 0 | – | – | – | – | – | – | – | – | – | – | – | – | – | – | Plant response rating, Bedstraw [1, 6]: 0; Bedstraw plant response rating [1, 7]: 0; Bedstraw plant response rating [1, 8]: 0; Bedstraw plant response rating [1, 9]: 0; Bedstraw plant response rating [1, 10]: 0; Plant response rating, Soybean [2, 6]: 0; Soybean plant response rating [2, 7]: 0; Soybean plant response rating [2, 8]: 0; Soybean plant response rating [2, 9]: 0; Soybean plant response rating [2, 10]: 1; Barnyardgrass plant response rating ([3]; Rate 500 g/ha, Pre-emergence, flood test species, scale 0 to 10 (0 no effect, 10 complete control)): 0; Wild oats plant response rating ([4]; Postemergence, Rate 250 g/ha, scale 0 to 10): 0; Plant response rating, Wild oats [4, 6]: 0; Wild oats plant response rating [4, 7]: 0; Wild oats plant response rating [4, 8]: 0; Wild oats plant response rating [4, 9]: 0; Wild oats plant response rating [4, 10]: 0 |
| CC(C)N(C(=O)n1oc(=O)n(CCC2OCCCO2)c1=O)c1ccc(Cl)cc1 [Compound 532] | 0 | 0 | 0 | 0 | 9 | 0 | 0 | 0 | 0 | 0 | 0 | 0 | 0 | 0 | 5 | 9 | 0 | 0 | 0 | 0 | Soybean plant response rating [2, 13]: 0; Soybean plant response rating [2, 14]: 2; Plant response rating, Soybean [2, 15]: 5; Wild oats plant response rating [4, 13]: 0; Wild oats plant response rating [4, 14]: 0; Plant response rating, Wild oats [4, 15]: 0 |
| CC(C)N(C(=O)n1oc(=O)n(CC2CCC2)c1=O)c1ccc(Cl)cc1 [Compound 550] | – | – | 0 | 0 | 0 | – | 0 | 0 | 0 | 3 | 0 | 0 | 0 | 0 | 3 | 0 | 0 | 2 | 8 | 4 | Bedstraw plant response rating [1, 20]: 0; Bedstraw plant response rating [1, 18]: 0; Bedstraw plant response rating (0 to 10 scale) ([1]; Preemergence, Rate 250 g/ha): 0; Soybean plant response rating [2, 13]: 2; Soybean plant response rating [2, 14]: 2; Plant response rating, Soybean [2, 15]: 3; Soybean plant response rating [2, 20]: 0; Wild oats plant response rating [4, 13]: 0; Wild oats plant response rating [4, 14]: 2; Plant response rating, Wild oats [4, 15]: 3; Wild oats plant response rating [4, 20]: 0 |
| CC(C)N(C(=O)n1oc(=O)n(CCc2ccccc2)c1=O)c1ccccc1 [Compound 567] | – | – | 0 | 0 | 0 | – | 0 | 0 | – | 0 | 0 | 0 | 0 | 0 | 4 | 0 | 0 | 0 | 0 | 0 | Plant response rating, Bedstraw [1, 21]: 0; Bedstraw plant response rating [1, 20]: 0; Bedstraw plant response rating [1, 18]: 0; Bedstraw plant response rating (0 to 10 scale) ([1]; Preemergence, Rate 250 g/ha): 0; Plant response rating, Soybean [2, 21]: 6; Soybean plant response rating [2, 20]: 0; Plant response rating, Wild oats [4, 21]: 0; Wild oats plant response rating [4, 20]: 0 |
